Assay: xn = mol fraction of the nth substance listed
Details: 101 kPa, Liquid

CC1COC(=O)O1 (stereo unspecified) [4-methyl-1,3-dioxolan-2-one] + Cc1ccccc1C
Details	mass density [kg/m3]
293.15 K, x2 = 0	1200.25
293.15 K, x2 = 0.0538	1176.67
293.15 K, x2 = 0.1287	1145.43
293.15 K, x2 = 0.1843	1123.36
293.15 K, x2 = 0.2358	1103.71
293.15 K, x2 = 0.3149	1074.93
293.15 K, x2 = 0.3559	1060.64
293.15 K, x2 = 0.4247	1037.54
293.15 K, x2 = 0.4792	1020.01
293.15 K, x2 = 0.5345	1002.84
293.15 K, x2 = 0.6031	982.36
293.15 K, x2 = 0.6638	964.97
293.15 K, x2 = 0.7213	949.05
293.15 K, x2 = 0.7832	932.49
293.15 K, x2 = 0.8529	914.51
293.15 K, x2 = 0.9284	895.76
303.15 K, x2 = 0	1180.55
303.15 K, x2 = 0.0613	1155.03
303.15 K, x2 = 0.1273	1128.84
303.15 K, x2 = 0.1732	1111.36
303.15 K, x2 = 0.2583	1080.45
303.15 K, x2 = 0.3341	1054.45
303.15 K, x2 = 0.3619	1045.26
303.15 K, x2 = 0.4282	1024.01
303.15 K, x2 = 0.4911	1004.69
303.15 K, x2 = 0.5538	986.2
303.15 K, x2 = 0.6132	969.33
303.15 K, x2 = 0.6739	952.71
303.15 K, x2 = 0.7428	934.53
303.15 K, x2 = 0.8023	919.3
303.15 K, x2 = 0.8631	904.39
303.15 K, x2 = 0.9347	887.3
313.15 K, x2 = 0	1161.28
313.15 K, x2 = 0.0643	1135.09
313.15 K, x2 = 0.1138	1115.77
313.15 K, x2 = 0.1729	1093.62
313.15 K, x2 = 0.2483	1066.72
313.15 K, x2 = 0.3248	1040.87
313.15 K, x2 = 0.3958	1018.07
313.15 K, x2 = 0.4587	998.77
313.15 K, x2 = 0.518	981.29
313.15 K, x2 = 0.5628	968.51
313.15 K, x2 = 0.6345	948.78
313.15 K, x2 = 0.6948	932.83
313.15 K, x2 = 0.7539	917.73
313.15 K, x2 = 0.8039	905.34
313.15 K, x2 = 0.8621	891.32
313.15 K, x2 = 0.9357	874.17
323.15 K, x2 = 0	1142.43
323.15 K, x2 = 0.0527	1120.67
323.15 K, x2 = 0.1328	1089.28
323.15 K, x2 = 0.1842	1070.13
323.15 K, x2 = 0.2487	1047.11
323.15 K, x2 = 0.3398	1016.41
323.15 K, x2 = 0.3781	1004.09
323.15 K, x2 = 0.4487	982.22
323.15 K, x2 = 0.5031	966.07
323.15 K, x2 = 0.5529	951.78
323.15 K, x2 = 0.6249	931.92
323.15 K, x2 = 0.6843	916.18
323.15 K, x2 = 0.7451	900.64
323.15 K, x2 = 0.8146	883.52
323.15 K, x2 = 0.8702	870.29
323.15 K, x2 = 0.9429	853.56
333.15 K, x2 = 0	1123.99
333.15 K, x2 = 0.0578	1099.25
333.15 K, x2 = 0.1298	1070.06
333.15 K, x2 = 0.1844	1049.03
333.15 K, x2 = 0.2358	1030.04
333.15 K, x2 = 0.3139	1002.61
333.15 K, x2 = 0.3847	979.1
333.15 K, x2 = 0.4412	961.2
333.15 K, x2 = 0.5055	941.69
333.15 K, x2 = 0.5572	926.61
333.15 K, x2 = 0.6148	910.43
333.15 K, x2 = 0.6627	897.43
333.15 K, x2 = 0.7365	878.16
333.15 K, x2 = 0.7947	863.56
333.15 K, x2 = 0.8634	846.95
333.15 K, x2 = 0.9354	830.22
343.15 K, x2 = 0	1105.98
343.15 K, x2 = 0.0527	1081.81
343.15 K, x2 = 0.1278	1049.31
343.15 K, x2 = 0.1782	1028.67
343.15 K, x2 = 0.2476	1001.67
343.15 K, x2 = 0.3279	972.32
343.15 K, x2 = 0.3841	952.89
343.15 K, x2 = 0.4529	930.23
343.15 K, x2 = 0.5139	911.13
343.15 K, x2 = 0.5732	893.36
343.15 K, x2 = 0.6241	878.7
343.15 K, x2 = 0.6742	864.77
343.15 K, x2 = 0.7246	851.23
343.15 K, x2 = 0.7726	838.75
343.15 K, x2 = 0.8523	818.84
343.15 K, x2 = 0.9274	800.96
353.15 K, x2 = 0	1088.38
353.15 K, x2 = 0.0639	1056.4
353.15 K, x2 = 0.1128	1033.26
353.15 K, x2 = 0.1832	1001.84
353.15 K, x2 = 0.2478	974.79
353.15 K, x2 = 0.3255	944.31
353.15 K, x2 = 0.3859	922.03
353.15 K, x2 = 0.4628	895.28
353.15 K, x2 = 0.5248	874.93
353.15 K, x2 = 0.5819	857.07
353.15 K, x2 = 0.6249	844.14
353.15 K, x2 = 0.6829	827.36
353.15 K, x2 = 0.7249	815.64
353.15 K, x2 = 0.7821	800.25
353.15 K, x2 = 0.8698	777.8

From the NIST ThermoML archive (doi:10.1016/j.jct.2005.01.017)
